Laboratory results from patent US4472386A, “5-Fluoro-(β-uridine or 2'-deoxy-β-uridine) derivatives, a process for producing the same and a carcinostatic agent containing the same” (Toyama Chemical Co., Ltd., priority 1978, dated 1984).
Like-named read-outs stand apart in the source and are kept apart here.

Columns and labels:
[1] = test system: Ehrlich ascites carcinoma; assay: Inhibition of Ehrlich solid tumor in mice, intraperitoneal administration (Table 1); format: in vivo, ddY mice; set-up: response vs control in vivo: dose or concentration left out as unconfirmed; conditions: for response vs control in vivo: day 14
Description: (§1) 1. Experiment on the inhibition of Ehrlich solid tumor
Ehrlich ascites carcinoma was subcutaneously inoculated into the right inguinal region of ddY mice (5 weeks old, male, 8 mice per group) with 3×10^6 cells per mouse.
24 Hours after the inoculation, a test drug suspended or dissolved in 5% HCO 60 (a product manufactured by Nikkol) was administered intraperitoneally successively once daily for 7 days. To the control group, the same quantity as above of 5% HCO 60 was intraperitoneally administered in the same manner. Fourteen days after the inoculation, the tumor was excised and weighed, from which the average tumor weight ratio between the test group and the control group (T/C) was determined.

SLC-ddY mice = conditions: mouse, in vivo
From the text: (a) The test compound was suspended in 0.25% CMC solution and administered intraperitoneally to SLC-ddY mice (5 weeks old, male, 6 mice per group). The number of dead mice was counted over the subsequent three weeks.

[2] = test system: Ehrlich ascites carcinoma; assay: Inhibition of Ehrlich solid tumor in mice, oral administration starting six days after inoculation (Table 2); format: in vivo, ddY mice; conditions: for T/C (average tumor weight ratio between test group and control group): day 21
Description: as §1
Ehrlich ascites carcinoma was subcutaneously inoculated into the inguinal region of ddY mice (5 weeks old, male, 8 mice per group) with 3×10^6 cells per mouse. Six days after the inoculation, a test drug dissolved or suspended in 0.5% CMC solution was administered orally to the test group successively once daily for 10 days, while the same quantity as above of 0.5% CMC solution was orally administered to the control group. Twenty one days after the inoculation, the tumor was excised and weighed, from which the average tumor weight ratio between the test group and the control group (T/C) was determined.

[3] = test system: Sarcoma-180 ascites tumor; assay: Inhibition of Sarcoma-180 ascites tumor in mice, intravenous administration (Table 3); format: in vivo, ddY mice; conditions: for T/C (average tumor weight ratio between test group and control group): Sarcoma-180, day 10
Description: 2. Experiment on the inhibition of Sarcoma-180 ascites tumor
Sarcoma-180 ascites tumor was subcutaneously inoculated into the right inguinal region of ddY mice (5 weeks old, male, 8 mice per group) with 3×10^6 cells per mouse. Twenty four hours after the inoculation,a test drug dissolved in 10% polyethylene glycol was administered intravenously to the test group successively once daily for 7 days, while the same quantity as above of 10% polyethylene glycol was intravenously administered to the control group. Ten days after the inoculation, the tumor was excised and weighed, from which the average tumor weight ratio between the test group and the control group (T/C) was determined.

[4] = Acute toxicity test (b), oral LD50 (Table 4); conditions: mouse, in vivo
Description: (b) The test compound was suspended in 0.25% CMC solution and administered orally to SLC-ddY mice (5 weeks old, male, 6 mice per group). The number of dead mice was counted over the subsequent 3 weeks. LD50 value was calculated according to the method of Van der Waerden.

[5] = test system: Ehrlich ascites carcinoma; assay: Carcinostatic test, oral, ED values (Table 5); format: in vivo, ddY mice; conditions: Mus musculus, 336 h
Description: Ehrlich ascites carcinoma was subcutaneously inoculated into the right inguinal region of ddY mice (5 weeks old, male, 8 mice per group) with 8×10^6 cells per mouse. Twenty four hours after the inoculation,5, 10, 20 or 40 mg/kg of a test drug suspended or dissolved in polyethylene glycol was administered orally to the test group successively once daily for 10 days, while the same quantity as above of 10% polyethylene glycol was administered orally to the control group. Fourteen days after the inoculation, the tumor was excised and weighed, from which the average tumor weight ratio between the test group and the control group (T/C) was calculated. ED value was determined by the least square method.

[6] = 40 mg/kg i.p. once daily for 7 days
[7] = Mus musculus, ip, 336 h, Ehrlich, read-out: T/C (average tumor weight ratio between test group and control group)
[8] = 60 mg/kg orally once daily for 10 days
[9] = 60 mg/kg orally once daily for 10 days from day 6, Ehrlich
[10] = 10 mg/kg i.v. once daily for 7 days
[11] = oral once daily for 10 days, least square method, read-out: ED30
[12] = oral once daily for 10 days, least square method, read-out: ED40
[13] = 5 mg/kg i.v. once daily for 7 days
[14] = oral, 3 weeks, Van der Waerden method

| SMILES | Body weight change [1, 6] | response vs control in vivo [1, 7] | also measured |
| --- | --- | --- | --- |
| O=C(c1cccc(Cl)c1)n1c(=O)c(F)cn([C@H]2C[C@H](O)[C@@H](CO)O2)c1=O [compound 11] | +7.6 g | 34.3% | Number of dead mice (SLC-ddY mice): no dead mice |
| O=C(c1c(F)cccc1F)n1c(=O)c(F)cn([C@H]2C[C@H](O)[C@@H](CO)O2)c1=O [compound 29] | +7.9 g | 41.3% | – |
| O=C(c1ccccc1I)n1c(=O)c(F)cn([C@H]2C[C@H](O)[C@@H](CO)O2)c1=O [compound 8] | +7.6 g | 33.5% | – |
| O=C(c1ccc(Br)o1)n1c(=O)c(F)cn([C@H]2C[C@H](O)[C@@H](CO)O2)c1=O [compound 24] | +4.7 g | 42.5% | – |
| O=C(c1ccc(F)cc1)n1c(=O)c(F)cn([C@H]2C[C@H](O)[C@@H](CO)O2)c1=O [compound 2] | +6.8 g | 23.2% | Body weight change [2, 8]: -0.4 g; T/C (average tumor weight ratio between test group and control group) [2, 9]: 36.8%; Body weight change [3, 10]: +4.1 g; No. of surviving mice/No. of total mice used [3, 10]: 8/8; T/C (average tumor weight ratio between test group and control group) [3, 10]: 46.2%; Number of dead mice (SLC-ddY mice): no dead mice; LD50 at 504 h ([4]; po): 2070 mg/kg; ED30 [5, 11]: 11 mg/kg; ED40 [5, 12]: 20 mg/kg |
| O=C(c1ccc([N+](=O)[O-])cc1)n1c(=O)c(F)cn([C@H]2C[C@H](O)[C@@H](CO)O2)c1=O [compound 19] | +5.9 g | 41.5% | – |
| COC(=O)c1ccc(C(=O)n2c(=O)c(F)cn([C@H]3C[C@H](O)[C@@H](CO)O3)c2=O)cc1 [compound 12] | +6.2 g | 36.9% | – |
| O=C(c1ccccc1Cl)n1c(=O)c(F)cn([C@H]2C[C@H](O)[C@@H](CO)O2)c1=O [compound 7] | +6.0 g | 33.1% | – |
| Cc1ccccc1C(=O)n1c(=O)c(F)cn([C@H]2C[C@H](O)[C@@H](CO)O2)c1=O [compound 6] | +7.3 g | 32.3% | – |
| O=C(c1ccco1)n1c(=O)c(F)cn([C@H]2C[C@H](O)[C@@H](CO)O2)c1=O [compound 15] | +7.9 g | 39.1% | – |
| O=C(CBr)Nc1ccc(C(=O)n2c(=O)c(F)cn([C@H]3C[C@H](O)[C@@H](CO)O3)c2=O)cc1 [compound 26] | +2.3 g | 35.3% | – |
| COc1cccc(OC)c1C(=O)n1c(=O)c(F)cn([C@H]2C[C@H](O)[C@@H](CO)O2)c1=O [compound 18] | +7.8 g | 41.5% | Number of dead mice (SLC-ddY mice): no dead mice |
| O=Cc1ccc(C(=O)n2c(=O)c(F)cn([C@H]3C[C@H](O)[C@@H](CO)O3)c2=O)cc1 [compound 14] | +7.1 g | 38.1% | – |
| O=C(c1cc(Br)cs1)n1c(=O)c(F)cn([C@H]2C[C@H](O)[C@@H](CO)O2)c1=O [compound 23] | +5.3 g | 38.8% | – |
| O=C(c1ccccc1F)n1c(=O)c(F)cn([C@H]2C[C@H](O)[C@@H](CO)O2)c1=O [compound 20] | +7.4 g | 42.8% | – |
| O=C(c1ccc2c(c1)OCO2)n1c(=O)c(F)cn([C@H]2C[C@H](O)[C@@H](CO)O2)c1=O [compound 27] | +6.4 g | 27.1% | Body weight change [2, 8]: -0.5 g; T/C (average tumor weight ratio between test group and control group) [2, 9]: 30%; Body weight change [3, 10]: +4.0 g; No. of surviving mice/No. of total mice used [3, 10]: 8/8; T/C (average tumor weight ratio between test group and control group) [3, 10]: 45.3%; Number of dead mice (SLC-ddY mice): no dead mice; LD50 at 504 h ([4]; po): ≥ 2290 mg/kg; ED30 [5, 11]: 6.4 mg/kg; ED40 [5, 12]: 12 mg/kg |
| O=C(c1cccc(C(F)(F)F)c1)n1c(=O)c(F)cn([C@H]2C[C@H](O)[C@@H](CO)O2)c1=O [compound 25] | +5.3 g | 43% | – |
| O=c1[nH]cc(F)c(=O)[nH]1 [5-Fu, 5-fluorouracil, reference compound] | – | – | Body weight change ([1]; 20 mg/kg i.p. once daily for 7 days): +4.1 g; response vs control in vivo at 20 mg/kg ([1]; Mus musculus, Ehrlich, ip, 336 h, read-out: T/C (average tumor weight ratio between test group and control group)): 49.9%; Body weight change ([2]; 30 mg/kg orally once daily for 10 days): -3.8 g; T/C (average tumor weight ratio between test group and control group) ([2]; 30 mg/kg orally once daily for 10 days from day 6, Ehrlich): 39.7%; Body weight change [3, 13]: +4.0 g; No. of surviving mice/No. of total mice used [3, 13]: 8/8; T/C (average tumor weight ratio between test group and control group) [3, 13]: 59.7%; LD50 at 504 h [4, 14]: 259 mg/kg; ED30 ([5]; po): 15 mg/kg; ED40 ([5]; po): 25 mg/kg |
| O=C(Nc1ccc(C(=O)n2c(=O)c(F)cn([C@H]3C[C@H](O)[C@@H](CO)O3)c2=O)cc1)C(Cl)Cl [compound 22] | +6.5 g | 41.6% | – |
| O=C(CCl)Nc1ccc(C(=O)n2c(=O)c(F)cn([C@H]3C[C@H](O)[C@@H](CO)O3)c2=O)cc1 [compound 5] | +4.8 g | 27.5% | Body weight change [2, 8]: -4.1 g; T/C (average tumor weight ratio between test group and control group) [2, 9]: 34.0% |
| O=C(c1cc(O)cc(O)c1)n1c(=O)c(F)cn([C@H]2C[C@H](O)[C@@H](CO)O2)c1=O [compound 17] | +7.9 g | 41% | – |
| O=C(c1ccc(F)cc1F)n1c(=O)c(F)cn([C@H]2C[C@H](O)[C@@H](CO)O2)c1=O [compound 28] | +5.9 g | 21.7% | – |
| CC(=O)OC[C@H]1O[C@@H](n2cc(F)c(=O)n(C(=O)c3ccc4c(c3)OCO4)c2=O)C[C@@H]1OC(C)=O [compound 30] | +6.1 g | 30.1% | – |
| CN(C)c1ccc(C(=O)n2c(=O)c(F)cn([C@H]3C[C@H](O)[C@@H](CO)O3)c2=O)cc1 [compound 21] | +4.7 g | 32.4% | LD50 at 504 h [4, 14]: ≥ 2540 mg/kg |
| O=C(c1cccc2ccccc12)n1c(=O)c(F)cn([C@H]2C[C@H](O)[C@@H](CO)O2)c1=O [compound 9] | +6.7 g | 33.5% | – |
| O=C(CCl)Nc1cccc(C(=O)n2c(=O)c(F)cn([C@H]3C[C@H](O)[C@@H](CO)O3)c2=O)c1 [compound 4] | +4.4 g | 25.2% | – |
| N#Cc1ccc(C(=O)n2c(=O)c(F)cn([C@H]3C[C@H](O)[C@@H](CO)O3)c2=O)cc1 [compound 13] | +7.2 g | 36.9% | Number of dead mice (SLC-ddY mice): no dead mice |
| COc1cc(N)c(Cl)cc1C(=O)n1c(=O)c(F)cn([C@H]2C[C@H](O)[C@@H](CO)O2)c1=O [compound 10] | +7.3 g | 34.2% | – |
| Cc1ccsc1C(=O)n1c(=O)c(F)cn([C@H]2C[C@H](O)[C@@H](CO)O2)c1=O [compound 16] | +6.4 g | 40.7% | – |
